According to ChEMBL document CHEMBL1201862, “PubChem BioAssay data set” (2004):
“And” between values parts separate entries of the source, which are not always exact repeats. Identical values can stand only once.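 Briefly, cells in 96-well plates were exposed to five compound concentrations for 48 h, and endpoints were estimated by linear interpolation. GI50: concentration for 50% inhibition of growth.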 The source made the active and inactive calls. Cut-off read from the data, not from the text of the source: active = GI50 up to about 1.1 µM and inactive = higher.

Legend:
Assay in all cases: NCI-60 cell line screen, 48 h
HCT-116 = system: HCT-116
COLO 205 = system: COLO 205
EKVX = system: EKVX
SW-620 = system: SW-620
T47D = system: T47D
K562 = system: K562
NCI/ADR-RES = system: NCI/ADR-RES
OVCAR-5 = system: OVCAR-5
CCRF-CEM = system: CCRF-CEM
IGROV-1 = system: IGROV-1
SN12C = system: SN12C
M14 = system: M14
SK-MEL-28 = system: SK-MEL-28
KM12 = system: KM12
OVCAR-4 = system: OVCAR-4
CAKI-1 = system: CAKI-1
SK-MEL-2 = system: SK-MEL-2
PC-3 = system: PC-3
NCI-H522 = system: NCI-H522

Measured: GI50

CC(=O)C(C(C)=O)=C1CCCC(O)O1 (configuration not stated)
inactive: HCT-116 > 100 µM | COLO 205 > 100 µM | EKVX > 100 µM | SW-620 > 100 µM | T47D > 100 µM | K562 > 100 µM | NCI/ADR-RES > 100 µM | OVCAR-5 > 100 µM | CCRF-CEM 48.5 µM | IGROV-1 > 100 µM | SN12C > 100 µM | M14 > 100 µM | SK-MEL-28 > 100 µM | KM12 > 100 µM | OVCAR-4 > 100 µM

COc1ccccc1/N=N/c1c(O)ccc2ccccc12
inactive: HCT-116 33.4 µM and 29 µM | COLO 205 56.8 µM and 64.7 µM | CAKI-1 18.7 µM and 25.6 µM | SW-620 56.8 µM and 66.7 µM | T47D 23.3 µM and 38.2 µM | K562 > 100 µM and 82.8 µM | SK-MEL-2 > 63.4 µM and 65 µM | NCI/ADR-RES 42.1 µM and 35 µM | OVCAR-5 40.1 µM and 38.9 µM | SN12C 71.4 µM and 60.8 µM | SK-MEL-28 85.3 µM | PC-3 35.6 µM and 38.1 µM | KM12 51.6 µM and > 45.5 µM

O=C1[C@H]2ON(c3ccccc3)C(c3ccccc3)[C@H]2C(=O)N1c1ccc(Cc2ccc(N3C(=O)[C@@H]4ON(c5ccccc5)C(c5ccccc5)[C@@H]4C3=O)cc2)cc1 (some centres not stated)
inactive: COLO 205 > 100 µM | CAKI-1 > 100 µM | SW-620 > 100 µM | K562 > 100 µM | SK-MEL-2 > 100 µM | OVCAR-5 > 100 µM | CCRF-CEM > 100 µM | IGROV-1 > 100 µM | SN12C > 100 µM | M14 > 100 µM | SK-MEL-28 > 100 µM | KM12 > 100 µM | OVCAR-4 > 100 µM

C=C1C[C@]23CC[C@@H]4C(CO)(CO)CC(=O)C[C@]4(C)[C@@H]2CC[C@H]1C3
inactive: NCI-H522 > 100 µM | HCT-116 > 100 µM | COLO 205 > 100 µM | EKVX > 100 µM | CAKI-1 > 100 µM | SW-620 > 100 µM | K562 > 100 µM | SK-MEL-2 > 100 µM | NCI/ADR-RES > 100 µM | OVCAR-5 > 100 µM | CCRF-CEM > 100 µM | IGROV-1 57.9 µM | SN12C > 100 µM | M14 > 100 µM | SK-MEL-28 > 100 µM | PC-3 40.5 µM | OVCAR-4 > 100 µM

CC(C)NC(=O)N(Nc1ccccc1)C(C)(C)C
inactive: HCT-116 > 100 µM | COLO 205 > 100 µM | EKVX > 100 µM | CAKI-1 > 100 µM | SW-620 > 100 µM | K562 > 100 µM | SK-MEL-2 > 100 µM | NCI/ADR-RES > 100 µM | OVCAR-5 > 100 µM | CCRF-CEM > 100 µM | IGROV-1 > 100 µM | SN12C > 100 µM | M14 > 100 µM | SK-MEL-28 > 100 µM | PC-3 > 100 µM | KM12 > 100 µM | OVCAR-4 > 100 µM

Cc1cn([C@H]2[C@@H](CO)C[C@H]2O)c(=O)[nH]c1=O
inactive: NCI-H522 > 100 µM | HCT-116 > 100 µM | COLO 205 > 100 µM | EKVX > 100 µM | CAKI-1 > 100 µM | SW-620 > 100 µM | K562 > 100 µM | SK-MEL-2 > 100 µM | NCI/ADR-RES > 100 µM | OVCAR-5 > 100 µM | CCRF-CEM > 100 µM | IGROV-1 > 100 µM | SN12C > 100 µM | SK-MEL-28 > 100 µM | PC-3 > 100 µM | KM12 > 100 µM | OVCAR-4 > 100 µM

COc1nc2c(c(=O)[nH]1)N=C(c1ccc(Cl)cc1)CC(c1ccccc1)N2 (configuration not stated)
inactive: NCI-H522 20.3 µM | HCT-116 34.3 µM | COLO 205 38.8 µM | EKVX 29.6 µM | CAKI-1 28.2 µM | SW-620 44.6 µM | K562 28.1 µM | SK-MEL-2 21.3 µM | NCI/ADR-RES 23.8 µM | OVCAR-5 49.9 µM | CCRF-CEM 19.1 µM | IGROV-1 31.9 µM | SN12C 22.7 µM | M14 17.3 µM | SK-MEL-28 17.7 µM | PC-3 43.5 µM | KM12 37.2 µM | OVCAR-4 22.7 µM

CCCCCCC(=O)O[C@H]1CC[C@H]2[C@@H]3CCC4C/C(=N/NC(=O)c5cccc6c(=O)c7ccccc7[nH]c56)C=C(C)[C@]4(C)[C@H]3CC[C@]12C (some centres not stated)
inactive: HCT-116 > 25 µM | COLO 205 > 25 µM | EKVX > 25 µM | CAKI-1 > 25 µM | SW-620 > 25 µM | T47D > 25 µM | K562 > 25 µM | SK-MEL-2 > 25 µM | NCI/ADR-RES > 25 µM | OVCAR-5 > 25 µM | CCRF-CEM > 25 µM | IGROV-1 > 25 µM | SN12C > 25 µM | M14 > 25 µM | PC-3 > 25 µM | KM12 9.27 µM | OVCAR-4 > 25 µM
